Source: US10202351B2, “Pyrazolyl derivatives as pest control agents” (BAYER ANIMAL HEALTH GMBH, priority 2015, dated 2019)

Columns and labels:
Tetranychus urticae = Tetranychus urticae spray test, OP-resistant; format: in vivo; settings: all stages on bean leaf discs, after 6 days
Method: Solvent: 78.0 parts by weight of acetone • • 1.5 parts by weight of dimethylformamide Emulsifier: alkylaryl polyglycol ether […] To produce further test concentrations, the formulation is diluted with emulsifier-containing water. Discs of bean leaves (Phaseolus vulgaris) infested with all stages of the greenhouse red spider mite (Tetranychus urticae) are sprayed with an active ingredient formulation of the desired concentration.

Boophilus microplus = Boophilus microplus injection test; format: in vivo; settings: application rate 20 μg/animal, after 7 days, laying of fertile eggs
Method: Solvent: dimethyl sulfoxide […] The animals are transferred into dishes and kept in a climate-controlled room. Efficacy is assessed after 7 days by laying of fertile eggs. Eggs which are not visibly fertile are stored in a climate-controlled cabinet until the larvae hatch after about 42 days.

Phaedon cochleariae = Phaedon cochleariae spray test; format: in vivo; settings: larvae on Chinese cabbage leaf discs, after 7 days
Method: (§1) Solvent: 78.0 parts by weight of acetone • • 1.5 parts by weight of dimethylformamide Emulsifier: alkylaryl polyglycol ether […] To produce further test concentrations, the formulation is diluted with emulsifier-containing water. Discs of Chinese cabbage leaves (Brassica pekinensis) are sprayed with an active ingredient formulation of the desired concentration and, after drying, populated with larvae of the mustard beetle (Phaedon cochleariae).

Ctenocephalides felis [1] = test: Ctenocephalides felis oral test; format: in vivo; settings: application rate 100 ppm in citrated cattle blood, kill after 2 days
Description: Solvent: dimethyl sulfoxide […] Dilution with citrated cattle blood gives the desired concentration. About 20 unfed adult cat fleas (Ctenocephalides felis) are placed into a chamber which is closed at the top and bottom with gauze. A metal cylinder whose bottom end is closed with parafilm is placed onto the chamber. The cylinder contains the blood/active ingredient formulation, which can be imbibed by the fleas through the parafilm membrane.

Rhipicephalus sanguineus = Rhipicephalus sanguineus in vitro contact test with adult brown dog ticks; format: in vivo; settings: after 48 h, dead or moribund ticks
Method: After the solvent has evaporated off, the tubes are populated with 5-10 adult dog ticks (Rhipicephalus sanguineus), sealed with a perforated plastic lid and incubated in a horizontal position in the dark at room temperature and ambient humidity. After 48 h, efficacy is determined. To this end, the ticks are knocked to the base of the tube and incubated on a hotplate at 45-50° C. for not more than 5 min. Ticks which remain motionless on the base or move in such an uncoordinated manner that they are unable to deliberately avoid the heat by climbing upwards are considered to be dead or moribund.

Spodoptera frugiperda = Spodoptera frugiperda spray test; format: in vivo; settings: caterpillars on maize leaf discs, after 7 days
Method: as §1, with “Leaf discs” for “Discs”, “maize (Zea mays)” for “Chinese cabbage leaves (Brassica pekinensis)”, “compound” for “ingredient”, “caterpillars” for “larvae”, “armyworm (Spodoptera frugiperda).” for “mustard beetle (Phaedon cochleariae).”

[2] = logP determination by HPLC on reversed-phase column (EEC Directive 79/831 Annex V.A8); format: physicochemical
Lucilia cuprina = Lucilia cuprina test; format: in vivo; settings: application rate 100 ppm, L1 larvae, kill after 2 days
How it was run: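 About 20 L1 larvae were placed in vessels of minced horsemeat containing compound, formulated in dimethyl sulfoxide and diluted with water to the test concentration. Kill (%) was scored after 2 days; 100% means all larvae dead, 0% none.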

Musca domestica = Musca domestica test; format: in vivo; settings: application rate 100 ppm, adult houseflies, kill after 2 days
Method: (§2) Solvent: dimethyl sulfoxide
To produce a suitable preparation of active compound, 10 mg of active compound are mixed with 0.5 ml of dimethyl sulfoxide, and the concentrate is diluted with water to the desired concentration.
Vessels containing a sponge treated with sugar solution and the active ingredient formulation of the desired concentration are populated with 10 adult houseflies (Musca domestica)).
After 2 days, the kill in % is determined. 100% means that all of the flies have been killed; 0% means that none of the flies have been killed.

Ctenocephalides felis [3] = test: Ctenocephalides felis in vitro contact test with adult cat fleas; format: in vivo; settings: application rate 5 μg/cm^2 (500 g/ha), after 48 h, dead or moribund fleas
Method: After the solvent has evaporated off, the tubes are populated with 5-10 adult cat fleas (Ctenocephalides felis), sealed with a perforated plastic lid and incubated in a horizontal position at room temperature and ambient humidity. After 48 h, efficacy is determined. To this end, the tubes are stood upright and the fleas are knocked to the base of the tube. Fleas which remain motionless at the base or move in an uncoordinated manner are considered to be dead or moribund.

[4] = tested on: cattle ticks (Boophilus microplus) Parkhurst strain, SP-resistant; test: Boophilus microplus dip test; format: in vivo; settings: application rate 100 ppm, after 7 days, laying of fertile eggs
Method: Test animals: cattle ticks (Boophilus microplus) Parkhurst strain, SP-resistant
as §2
10 mg of active ingredient are dissolved in 0.5 ml of dimethyl sulfoxide. To produce a suitable formulation, the active ingredient solution is diluted with water to the concentration desired in each case.
This active ingredient formulation is pipetted into tubes. 8-10 engorged adult female cattle ticks (Boophilus microplus) are transferred into a further tube with holes. The tube is immersed into the active ingredient formulation, and all the ticks are completely wetted. After the liquid has run out, the ticks are transferred on filter disks into plastic dishes and stored in a climate-controlled room.
Efficacy is assessed after 7 days by laying of fertile eggs. Eggs which are not visibly fertile are stored in a climate-controlled cabinet until the larvae hatch after about 42 days. An efficacy of 100% means that none of the ticks has laid any fertile eggs; 0% means that all the eggs are fertile.

[5] = application rate 5 μg/cm^2 (500 g/ha)
[6] = Table 1, HPLC C18, acetonitrile/water with formic acid

Cc1cc(C(F)(C(F)(F)F)C(F)(F)F)cc(C)c1-n1cc(-c2ccc(Cl)c(NC(=O)c3ccc(F)cc3)c2)cn1 [Example 4, N-[2-chloro-5-[1-[2,6-dimethyl-4-[1,2,2,2-tetrafluoro-1-(trifluoromethyl)ethyl]phenyl]pyrazol-4-yl]phenyl]-4-fluorobenzamide]
efficacy (Tetranychus urticae; application rate 100 g/ha): 100% | efficacy (Tetranychus urticae; application rate 500 g/ha): 90% | efficacy (Boophilus microplus): 100% | efficacy (Phaedon cochleariae; application rate 500 g/ha): 100% | efficacy (Ctenocephalides felis [1]): 100% | efficacy (Rhipicephalus sanguineus; [5]): 100% | efficacy (Spodoptera frugiperda; application rate 100 g/ha): 100% | efficacy (Spodoptera frugiperda; application rate 500 g/ha): 100% | lgP [2, 6]: lgP 5.57 | lgP ([2]; synthesis example): 5.57 | efficacy (Lucilia cuprina): 100%

Cc1cc(C(F)(C(F)(F)F)C(F)(F)F)cc(C)c1-n1cc(-c2ccc(F)c(NC(=O)c3ccncc3)c2)cn1 [Example 6]
efficacy (Musca domestica): 100% | efficacy (Tetranychus urticae; application rate 100 g/ha): 100% | efficacy (Boophilus microplus): 100% | efficacy (Phaedon cochleariae; application rate 100 g/ha): 100% | efficacy (Ctenocephalides felis [1]): 100% | efficacy (Rhipicephalus sanguineus; application rate 1 μg/cm^2 (100 g/ha)): 100% | efficacy (Spodoptera frugiperda; application rate 100 g/ha): 100% | efficacy (Ctenocephalides felis [3]): 100% | lgP [2, 6]: lgP 4.04 | efficacy (Lucilia cuprina): 100%

Cc1cc(C(F)(C(F)(F)F)C(F)(F)F)cc(C)c1-n1cc(-c2cnc(Cl)c(NC(=O)c3ccc(F)cc3)c2)cn1 [Example 11]
efficacy (Musca domestica): 100% | efficacy (Tetranychus urticae; application rate 100 g/ha): 90% | efficacy (Boophilus microplus): 100% | efficacy (Phaedon cochleariae; application rate 100 g/ha): 100% | efficacy (Ctenocephalides felis [1]): 100% | efficacy (Rhipicephalus sanguineus; [5]): 80% | efficacy (Spodoptera frugiperda; application rate 100 g/ha): 100% | lgP [2, 6]: lgP 5.14 | efficacy (Lucilia cuprina): 100%

O=C(Nc1ccc(F)c(-c2cnn(-c3c(Br)cc(C(F)(C(F)(F)F)C(F)(F)F)cc3C(F)(F)F)c2)c1)c1cocn1 [Example 2-14]
efficacy (Musca domestica): 90% | efficacy (Boophilus microplus): 100% | efficacy (Phaedon cochleariae; application rate 100 g/ha): 100% | efficacy (Ctenocephalides felis [1]): 100% | efficacy (Rhipicephalus sanguineus; [5]): 80% | efficacy (Spodoptera frugiperda; application rate 100 g/ha): 100% | efficacy (Ctenocephalides felis [3]): 100% | efficacy (Lucilia cuprina): 90%

Cc1cc(C(F)(C(F)(F)F)C(F)(F)F)cc(C(F)(F)F)c1-n1cc(-c2ccc(F)c(NC(=O)c3ccc(C#N)cc3)c2)cn1 [Example 33]
efficacy (Musca domestica): 90% | efficacy (Tetranychus urticae; application rate 100 g/ha): 90% | efficacy (Boophilus microplus): 100% | efficacy (Phaedon cochleariae; application rate 100 g/ha): 100% | efficacy (Ctenocephalides felis [1]): 100% | efficacy (Rhipicephalus sanguineus; [5]): 80% | efficacy (Spodoptera frugiperda; application rate 100 g/ha): 100% | efficacy (Ctenocephalides felis [3]): 100% | efficacy (Lucilia cuprina): 100%

Cc1cc(C(F)(C(F)(F)F)C(F)(F)F)cc(C(F)(F)F)c1-n1cc(-c2ccc(F)c(NC(=O)c3ccsc3)c2)cn1 [Example 31]
efficacy (Musca domestica): 100% | efficacy (Tetranychus urticae; application rate 100 g/ha): 100% | efficacy [4]: 90% | efficacy (Boophilus microplus): 100% | efficacy (Phaedon cochleariae; application rate 100 g/ha): 100% | efficacy (Ctenocephalides felis [1]): 100% | efficacy (Spodoptera frugiperda; application rate 100 g/ha): 100% | efficacy (Lucilia cuprina): 100%

Cc1cc(C(F)(C(F)(F)F)C(F)(F)F)cc(C)c1-n1cc(-c2ccc(Cl)c(NC(=O)c3ccncc3)c2)cn1 [Example 2]
efficacy (Musca domestica): 100% | efficacy (Tetranychus urticae; application rate 100 g/ha): 100% | efficacy (Tetranychus urticae; application rate 500 g/ha): 100% | efficacy [4]: 100% | efficacy (Boophilus microplus): 100% | efficacy (Phaedon cochleariae; application rate 500 g/ha): 100% | efficacy (Ctenocephalides felis [1]): 100% | efficacy (Rhipicephalus sanguineus; [5]): 100% | efficacy (Spodoptera frugiperda; application rate 100 g/ha): 100% | efficacy (Spodoptera frugiperda; application rate 500 g/ha): 100% | efficacy (Ctenocephalides felis [3]): 100% | lgP [2, 6]: lgP 4.41 | efficacy (Lucilia cuprina): 100%

Cc1cc(C(F)(C(F)(F)F)C(F)(F)F)cc(C)c1-n1cc(-c2ccc(F)c(NC(=O)c3ccncn3)c2)cn1 [Example 16]
efficacy (Musca domestica): 100% | efficacy (Boophilus microplus): 100% | efficacy (Phaedon cochleariae; application rate 100 g/ha): 100% | efficacy (Ctenocephalides felis [1]): 100% | efficacy (Rhipicephalus sanguineus; [5]): 80% | efficacy (Spodoptera frugiperda; application rate 100 g/ha): 100% | lgP [2, 6]: lgP 5.04 | efficacy (Lucilia cuprina): 95%

O=C(Nc1ccc(F)c(-c2cnn(-c3c(Br)cc(C(F)(C(F)(F)F)C(F)(F)F)cc3C(F)(F)F)c2)c1)c1ccncc1 [Example 2-13]
efficacy (Musca domestica): 100% | efficacy (Tetranychus urticae; application rate 100 g/ha): 90% | efficacy [4]: 100% | efficacy (Boophilus microplus): 100% | efficacy (Phaedon cochleariae; application rate 100 g/ha): 100% | efficacy (Ctenocephalides felis [1]): 100% | efficacy (Rhipicephalus sanguineus; [5]): 80% | efficacy (Spodoptera frugiperda; application rate 100 g/ha): 100% | efficacy (Ctenocephalides felis [3]): 80% | efficacy (Lucilia cuprina): 100%

Cc1cc(C(F)(C(F)(F)F)C(F)(F)F)cc(C)c1-n1cc(-c2cnc(Cl)c(NC(=O)c3ccncc3)c2)cn1 [Example 12]
efficacy (Musca domestica): 100% | efficacy (Tetranychus urticae; application rate 100 g/ha): 100% | efficacy (Boophilus microplus): 100% | efficacy (Phaedon cochleariae; application rate 100 g/ha): 100% | efficacy (Ctenocephalides felis [1]): 100% | efficacy (Rhipicephalus sanguineus; [5]): 80% | efficacy (Spodoptera frugiperda; application rate 100 g/ha): 100% | efficacy (Ctenocephalides felis [3]): 100% | lgP [2, 6]: lgP 3.97 | efficacy (Lucilia cuprina): 90%

Cc1cc(C(F)(C(F)(F)F)C(F)(F)F)cc(C(F)(F)F)c1-n1cc(-c2ccc(F)c(NC(=O)c3ccncc3)c2)cn1 [Example 50]
efficacy (Musca domestica): 100% | efficacy (Tetranychus urticae; application rate 100 g/ha): 100% | efficacy (Boophilus microplus): 100% | efficacy (Phaedon cochleariae; application rate 100 g/ha): 100% | efficacy (Ctenocephalides felis [1]): 100% | efficacy (Rhipicephalus sanguineus; [5]): 80% | efficacy (Spodoptera frugiperda; application rate 100 g/ha): 100% | efficacy (Ctenocephalides felis [3]): 100% | efficacy (Lucilia cuprina): 100%

Cc1cc(C(F)(C(F)(F)F)C(F)(F)F)cc(C)c1-n1cc(-c2ccc(F)c(NC(=O)c3ccc(F)cc3)c2F)cn1 [Example 7]
efficacy (Tetranychus urticae; application rate 100 g/ha): 100% | efficacy (Boophilus microplus): 100% | efficacy (Phaedon cochleariae; application rate 100 g/ha): 100% | efficacy (Rhipicephalus sanguineus; [5]): 80% | efficacy (Spodoptera frugiperda; application rate 100 g/ha): 83% | efficacy (Ctenocephalides felis [3]): 100% | lgP [2, 6]: lgP 4.84 | efficacy (Lucilia cuprina): 80%

Cc1cc(C(F)(C(F)(F)F)C(F)(F)F)cc(C)c1-n1cc(-c2ccc(F)c(NC(=O)c3ccc(F)cc3)c2)cn1 [Example 5]
efficacy (Musca domestica): 80% | efficacy (Tetranychus urticae; application rate 100 g/ha): 100% | efficacy (Tetranychus urticae; application rate 500 g/ha): 100% | efficacy (Boophilus microplus): 100% | efficacy (Phaedon cochleariae; application rate 500 g/ha): 100% | efficacy (Ctenocephalides felis [1]): 90% | efficacy (Rhipicephalus sanguineus; [5]): 80% | efficacy (Spodoptera frugiperda; application rate 100 g/ha): 100% | efficacy (Spodoptera frugiperda; application rate 500 g/ha): 100% | lgP [2, 6]: lgP 5.07 | efficacy (Lucilia cuprina): 100%
